From patent US20080312129A1, “Use of Mas G-Protein-Coupled Receptor Agonists and Antagonists, as Apoptotic-Activity Modulators for Study, Prevention and Treatment of Diseases” (priority 2005, published 2008)

Key:
[1] = tested on: CHO cells transfected with the Mas receptor (CHO-Mas); assay: Western blot, phosphorylation of kinase B (Akt) in CHO-Mas cells; type: cell-based; conditions: FIG. 10
Protocol: (§1) CHO cells transfected with the Mas receptor (CHO-Mas) and human endothelial cells of the thoracic aorta (HAEC) were cultured until confluence of approximately 80% and processed with a lise buffer for Western blotting. After the processing, the protein concentration was determined and the lisates were subjected to electrophoresis in polyacrylamide/SDS gel and then subjected to transfer to the nitrocellulose membrane. The membranes were incubated with specific antibodies (anti-phospho-Akt, anti-Akt, anti-phospho-eNOS and anti-β-actin). The bands were viewed after development by chemoluminescence.

[2] = tested on: human endothelial cells of the thoracic aorta (HAEC); assay: Western blot, phosphorylation of kinase B (Akt) in HAEC; type: cell-based; conditions: FIG. 12
Protocol: as §1

awake Wistar rats = assay: Vasodilating action of acetylcholine (blood pressure) in awake rats; type: in vivo, rat; conditions: endovenous infusion 7.0 pmol/min, n=9, FIG. 14B
Protocol: Wistar rats were subjected, 24 hours before the experiments, to surgical implantation of catheters into the femoral artery (for analysis of blood pressure and heart rate), femoral vein (for injection and infusion of drugs) and left carotid artery (for injection of drugs). The records of blood pressure and heart rate were obtained through a data acquisition system connected to a microcomputer (BIOPAC System, INc.). […] In none of the groups did we observe any alterations in the baroreflex.

NAD(P)H oxidase = NAD(P)H oxidase activity in HAEC homogenate, lucigenin chemoluminescence; type: cell-based, human; conditions: HAEC stimulated by Ang II 10^-7 M 10 min; Ang-(1-7) 10^-7 M 15 min pre-incubation; FIG. 16; direction stated only
Protocol: (§2) In order to quantify the activity of the NAD(P)H Oxtidase, human aorta endothelial cells (HAEC) were stimulated with angiotensin II (10^−7M) for 10 minutes. In some experiments, the cells were pre-exposed to the AT1 receptor antagonist Ibesartan (10^−5M), for 30 minutes or to Ang-(1-7) (10^−7 M) for 15 minutes. The chemoluminescence derived from lucigenin was used to determine the activity of NAD(P)H oxidase in the homogenate of the cells. In order to quantify the modulation of Ang-(1-7) in the phosphorylation of c-SRC, the HAECs were cultured until confluence of about 80% was reached and processed with lise buffer for Western blotting. After the processing, the protein concentration was determined and the lisates were subjected to gel electroforesis of polyacrylamide/SDS and then to the transfer to nitrocellulose membrane. The membranes were incubated with specific antibodies (anti-phospho-c-SRC, anti-c-SRC). The bands were visualized after development by chemoluminescency. […] In some experiments the cells were pre-incubated with Ibesartan (10^−5 M, 30 min). Data are presented with an average±EPM of 4 experiments. *p<0.05 vs control.+p<0.05 vs Ang II+Ang (1-7).

[3] = tested on: CHO cells transfected with the Mas receptor (CHO-Mas); assay: Western blot, phosphorylation of eNOS stimulatory site (S1177) in CHO-Mas cells; type: cell-based; conditions: FIG. 11
Protocol: as §1

[4] = tested on: human endothelial cells of the thoracic aorta (HAEC); assay: Western blot, phosphorylation of eNOS stimulatory site (S1177) in HAEC; type: cell-based; conditions: FIG. 13
Protocol: as §1

[5] = tested on: human aorta endothelial cells (HAEC); assay: Western blot, phosphorylation of c-SRC stimulated by Ang II in HAEC; type: cell-based; conditions: FIG. 15, 4 experiments, b15 words it as inhibiting c-SRC
Protocol: as §2

C57 mice = assay: Testis histology (apoptosis) and gonadosomatic index after 14-day osmotic mini-pump infusion; type: in vivo, mouse; conditions: 2.5 μg/h s.c. mini-pump, 14 days, n=5, FIG. 17
Protocol: Osmotic mini-pumps (ALZET, model 2002) containing the Mas G-protein-coupled receptor antagonist, A-779 (2.5 μg/h, 14 days, n=5) or carrier (NaCl 0.9%, 1 μl/h, 14 days, n=6) were implanted subscutaneously into the dorsal region of C57 mice under anesthesia with tribromoethanol (2.5%, 1 ml/100 g of body weight). After this period, the animals were weigh and then injected, by intraperitoneal route, with heparin at the concentration of 125 Ul/kg of body weight. After fifteen minutes, these animals were sedated with sodium thiopental (50 mg/kg of body weight) and perfused through the left ventricle. In a first step, it was carried out the washing of the vascular bed with a 0.9% saline solution, under a pressure of approximately 80 mmHg, for about 5 minutes, at room temperature. Immediately after this procedure, the animals were perfused with a 4% glutaraldehyde fixing solution in a phosphate buffer (0.05M, pH 7.2-7-4) for about 25 minutes. After this step, the testicles were removed and separated from the respective epididymis and weighed. From the testicular and body weights, one estimated the gonadosomatic index (percentage relation between the testicular weight and the body weight) for each animal. For the microscopic analyses, fragments of the testis up to about 3 mm thick were collected, which were dipped into glutaraldehyde buffered at 4% for two to four hours, at 4° C. […]

Substance	phosphorylation of kinase B (Akt) [1]	phosphorylation of kinase B (Akt) [2]	effect on the vasodilating action of acetylcholine (ACh) (awake Wistar rats)	activity of NAD(P)H oxidase (NAD(P)H oxidase)	phosphorylation of the stimulatory site of endothelial nitric oxide synthase (S1177) [3]	phosphorylation of the stimulatory site of eNOS (S1177) [4]	effect on phosphorylation of c-SRC stimulated by Ang II [5]	gonadosomatic index (testicular weight / body weight, percentage) versus control group (C57 mice)	number of apoptosis per transverse section of testis versus control group (C57 mice)	effect on Ang-(1-7)-stimulated phosphorylation of kinase B (Akt) [1]	effect on Ang-(1-7)-stimulated phosphorylation of kinase B (Akt) [2]
Angiotensin-(1-7) [Ang-(1-7)]	stimulation	stimulatory effect	potentiates the vasodilating action of acetylcholine	inhibits the activity of NAD(P)H oxidase	stimulated	stimulated	modulating effect				
Asp^1-Arg^2-Val^3-Tir^4-Lle^5-His^6-D-Ala^7 [A-779, reference compound]								there was not different	larger number of apoptosis per transverse section	blocked this effect	blocked this effect
